From US20140162942A1, “INHIBITION OF CYP3A DRUG METABOLISM” (priority 2010, published 2014)
pIC50: −log10 of the molar value. “Also recorded” adds a separate entry of the source. Where two headings read alike, the source gives them in different places.

Legend:
CYP2C8 = biological target: T1, CYP2C8 (Homo sapiens, UniProt P10632); test: CYP2C8 inhibition, amodiaquine N-dealkylation in human liver microsomes; assay type: in vitro ADME; conditions: for Potential for Time-Dep. Inhibition: comparison with and without 30-minute pre-incubation
T1 construct: Pooled human liver microsomes (from sixteen individuals) were used as the source of enzymes; tissue XenoTech, LLC; host or cells: human liver microsomes, pool of sixteen donors
T1 sequence (P10632 1-490): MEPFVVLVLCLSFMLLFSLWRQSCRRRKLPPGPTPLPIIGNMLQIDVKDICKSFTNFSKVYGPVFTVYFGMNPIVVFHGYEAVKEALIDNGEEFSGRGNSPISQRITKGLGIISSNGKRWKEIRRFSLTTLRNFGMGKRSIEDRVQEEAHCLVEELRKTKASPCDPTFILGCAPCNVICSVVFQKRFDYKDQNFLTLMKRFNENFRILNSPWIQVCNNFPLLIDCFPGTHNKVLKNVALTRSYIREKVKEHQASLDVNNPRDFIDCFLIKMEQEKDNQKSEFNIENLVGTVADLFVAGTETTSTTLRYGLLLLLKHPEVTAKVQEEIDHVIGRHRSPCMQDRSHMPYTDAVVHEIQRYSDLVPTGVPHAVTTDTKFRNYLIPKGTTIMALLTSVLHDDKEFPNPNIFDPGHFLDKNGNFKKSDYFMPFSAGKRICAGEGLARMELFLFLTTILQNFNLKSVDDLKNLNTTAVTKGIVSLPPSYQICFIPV
Experimental: (§1) The basis for many of the following incubation conditions is described in the following references: Madan, et al., 2002,^(1) Huang, 2004,^(3) Ogilvie, et al., 2006,^(6) Pearce, et al., 1996,^(7) Tucker, et al., 2001,^(4) and Walsky and Obach, 2004.^(5) In general, incubations were conducted at approximately 37° C. in 400-μL incubation mixtures (target pH 7.4) containing high purity water, potassium phosphate buffer (50 mM), MgCl2 (3 mM), EDTA (1 mM), an NADPH-generating system [always the mixture of the following: NADP (1 mM), glucose-6-phosphate (5 mM), glucose-6-phosphate dehydrogenase (1 Unit/mL)], and marker substrate at the final concentrations indicated. Pooled human liver microsomes (from sixteen individuals) were used as the source of enzymes (Section 1.3.1.2). The concentrations of marker substrates were based on the Km and Vmax data that were determined previously (data not shown).
(§2) Due to the possibility that boceprevir may bind to microsomal protein or lipids, an attempt was made to design these experiments such that, in as many cases as possible, the microsomal protein, incubation time, and phosphate buffer concentration were 0.1 mg/mL, 5 minutes and 50 mM, respectively, for assays performed with human liver microsomes (Table 1). […] Since it is not imperative that the concentration of marker substrates be exactly equal to Km, the marker substrate concentrations were rounded up or down, as applicable, to simplify the experimental design (data not shown). […] Thus, the final incubation concentration of phenacetin was 60 μM (Table 1).
(§3) The ability of boceprevir to inhibit the CYP enzymes listed in Section 1.2.1 was investigated with a pool of sixteen individual human liver microsomal samples at the concentrations indicated in Table 1. Aliquots of the stock and/or working solutions of boceprevir were manually added to buffer mixtures containing the components described in Section 1.3.21. Incubation mixtures were prepared in bulk to obviate the need for directly pipetting very small volumes (i.e., 1 μL or less). Incubations containing no boceprevir (0 μM) contained the vehicle used to dissolve boceprevir (i.e., 1% methanol).
(§4) The Tecan liquid handling system conducted all remaining incubation steps, with the exception of the centrifugation. Aliquots of the buffer mixtures were then automatically added to 96-well plates at the appropriate locations in duplicate. Aliquots of a substrate working solution were added to the 96-well plates, prior to initiating reactions, to give the final concentrations indicated in Table 1. Reactions were initiated with the addition of an aliquot of an NADPH-generating system. Reactions were automatically terminated at approximately 5 minutes, by the addition of the appropriate internal standard (Table 5) and stop reagent; acetonitrile. Precipitated protein was removed by centrifugation (920 g for 10 minutes at 10° C.). Standards and quality control samples were similarly prepared with the addition of authentic metabolite standards.
(§5) To examine its ability to act as a time-dependent inhibitor, boceprevir (at the same concentrations used to evaluate direct inhibition) was pre-incubated at 37±1° C., in duplicate, with human liver microsomes and an NADPH-generating system for approximately 30 minutes. This pre-incubation allowed for the generation of intermediates that could inhibit human CYP enzymes. The pre-incubations were initiated with the addition of an aliquot of an NADPH-generating system. […]

CYP2D6 = biological target: T2, CYP2D6 (Homo sapiens, UniProt P10635); test: CYP2D6 inhibition, dextromethorphan O-demethylation in human liver microsomes; assay type: in vitro ADME; conditions: for Potential for Time-Dep. Inhibition: comparison with and without 30-minute pre-incubation; for inhibition at 5 min, 100 µM: human, pH 7.4, probe dextromethorphan (O-demethylation)
T2 construct: Pooled human liver microsomes (from sixteen individuals) were used as the source of enzymes; tissue XenoTech, LLC; host or cells: human liver microsomes, pool of sixteen donors
Experimental: as §1, §2, §3, §4
(§6) To examine its ability to act as a time-dependent inhibitor, boceprevir (at the same concentrations used to evaluate direct inhibition) was pre-incubated at 37±1° C., in duplicate, with human liver microsomes and an NADPH-generating system for approximately 30 minutes. This pre-incubation allowed for the generation of intermediates that could inhibit human CYP enzymes. The pre-incubations were initiated with the addition of an aliquot of an NADPH-generating system. […] Reactions were automatically terminated, at approximately 5 minutes, by the addition of the appropriate internal standard (Table 5) and stop reagent; acetonitrile. Precipitated protein was removed by centrifugation (920 g for 10 minutes at 10° C.). Incubations containing no boceprevir (0 μM) and incubations that contained boceprevir but were not pre-incubated, served as negative controls.

CYP3A4/5 [1] = test: NADPH dependence and effects of dilution of time-dependent inhibition of CYP3A4/5 (testosterone 6β-hydroxylation and midazolam 1′-hydroxylation); assay type: in vitro ADME, human; conditions: 3 μM
CYP2C9 = biological target: T3, CYP2C9 (Homo sapiens, UniProt P11712); test: CYP2C9 inhibition, diclofenac 4′-hydroxylation in human liver microsomes; assay type: in vitro ADME; conditions: for Potential for Time-Dep. Inhibition: comparison with and without 30-minute pre-incubation
T3 construct: Pooled human liver microsomes (from sixteen individuals) were used as the source of enzymes; tissue XenoTech, LLC; host or cells: human liver microsomes, pool of sixteen donors
Experimental: as §1, §2, §3, §4, §5

CYP3A4/5 [2] = test: CYP3A4/5 inhibition, midazolam 1′-hydroxylation in human liver microsomes (IC50 and Ki); assay type: in vitro ADME; conditions: for Potential for Time-Dep. Inhibition: comparison with and without 30-minute pre-incubation
Experimental: as §1, §2, §3, §4, §6

[3] = direct inhibition, zero-minute pre-incubation, pooled human liver microsomes
[4] = time-dependent inhibition, 30-minute pre-incubation

T2 sequence (P10635 whole entry): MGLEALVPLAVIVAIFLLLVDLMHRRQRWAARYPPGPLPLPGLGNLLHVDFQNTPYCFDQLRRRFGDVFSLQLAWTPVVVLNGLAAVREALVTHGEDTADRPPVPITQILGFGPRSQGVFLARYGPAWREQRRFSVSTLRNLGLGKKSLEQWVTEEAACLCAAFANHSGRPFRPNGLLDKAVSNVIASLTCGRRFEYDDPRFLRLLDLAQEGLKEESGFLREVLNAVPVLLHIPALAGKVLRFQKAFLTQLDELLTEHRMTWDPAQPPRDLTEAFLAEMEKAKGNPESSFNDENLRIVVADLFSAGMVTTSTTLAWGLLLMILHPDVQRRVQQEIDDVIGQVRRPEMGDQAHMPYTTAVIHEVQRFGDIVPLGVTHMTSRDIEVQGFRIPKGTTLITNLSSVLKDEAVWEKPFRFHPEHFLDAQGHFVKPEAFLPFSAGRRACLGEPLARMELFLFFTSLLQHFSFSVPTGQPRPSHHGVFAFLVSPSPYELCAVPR
T3 sequence (P11712 whole entry): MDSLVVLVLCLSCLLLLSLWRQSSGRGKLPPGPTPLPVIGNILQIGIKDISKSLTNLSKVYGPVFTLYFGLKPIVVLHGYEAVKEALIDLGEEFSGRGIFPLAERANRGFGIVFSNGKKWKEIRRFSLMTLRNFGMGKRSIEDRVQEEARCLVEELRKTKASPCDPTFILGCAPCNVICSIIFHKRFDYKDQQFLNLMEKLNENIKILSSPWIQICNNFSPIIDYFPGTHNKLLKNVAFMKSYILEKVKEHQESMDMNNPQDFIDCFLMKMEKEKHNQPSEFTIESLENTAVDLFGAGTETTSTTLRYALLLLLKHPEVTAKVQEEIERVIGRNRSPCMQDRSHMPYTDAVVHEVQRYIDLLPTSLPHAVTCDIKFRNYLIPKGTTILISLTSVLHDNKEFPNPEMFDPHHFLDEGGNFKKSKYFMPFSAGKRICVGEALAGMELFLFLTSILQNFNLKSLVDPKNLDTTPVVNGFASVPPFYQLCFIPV

SMILES: CC(C)(C)NC(=O)NC(C(=O)N1CC2C([C@H]1C(=O)NC(CC1CCC1)C(=O)C(N)=O)C2(C)C)C(C)(C)C (stereo partly drawn) [Boceprevir, (1R,2S,5S)—N-[(2Ξ)-4-amino-1-cyclobutyl-3,4-dioxobutan-2-yl]-3-{(2S)-2-[(tert-butylcarbamoyl)amino]-3,3-dimethylbutanoyl}-6,6-dimethyl-3-azabicyclo[3.1.0]hexane-2-carboxamide]
- Potential for Time-Dep. Inhibition (CYP2C8): little or no
- Potential for Time-Dep. Inhibition (CYP2C8; listed as boceprevir): no discernable time-dependent inhibition
- pIC50 (CYP2C8; [3]): < 4.00
- inhibition at 5 min, 100 µM (CYP2C8; human, pooled human liver microsomes, pH 7.4, probe amodiaquine (N-dealkylation), direct inhibition, zero-minute pre-incubation, read-out: Max. Inhib. at 100 μM): 25%
- pIC50 (CYP2C8; [4]): < 4.00
- Potential for Time-Dep. Inhibition (CYP2D6): little or no
- Potential for Time-Dep. Inhibition (CYP2D6; listed as boceprevir): no discernable time-dependent inhibition
- pIC50 (CYP2D6; [3]): < 4.00
- inhibition at 5 min, 100 µM (CYP2D6; pooled human liver microsomes, direct inhibition, zero-minute pre-incubation, read-out: Max. Inhib. at 100 μM): 45%
- inhibition at 5 min, 100 µM (CYP2D6; pooled human liver microsomes, time-dependent inhibition, 30-minute pre-incubation, read-out: Maximum Inhibition at 100 μM): 30%
- pIC50 (CYP2D6; [4]): < 4.00
- Resistance to dilution of the increase in inhibition upon pre-incubation (CYP3A4/5 [1]; 25-fold dilution after pre-incubation): did not appear to be resistant to dilution
- NADPH dependence of the increase in inhibition upon pre-incubation (CYP3A4/5 [1]; pre-incubation 0, 15 and 30 minutes with and without NADPH): did require NADPH
- Potential for Time-Dep. Inhibition (CYP2C9): little or no
- Potential for Time-Dep. Inhibition (CYP2C9; listed as boceprevir): no discernable time-dependent inhibition
- pIC50 (CYP2C9; [3]): < 4.00
- inhibition at 5 min, 100 µM (CYP2C9; human, pooled human liver microsomes, pH 7.4, probe diclofenac (4′-hydroxylation), direct inhibition, zero-minute pre-incubation, read-out: Max. Inhib. at 100 μM): 3.6%
- pIC50 (CYP2C9; [4]): < 4.00
- Potential for Time-Dep. Inhibition (CYP3A4/5 [2]): yes^c
- Potential for Time-Dep. Inhibition (CYP3A4/5 [2]; listed as boceprevir): caused time-dependent inhibition
- Type of Inhibition (CYP3A4/5 [2]; direct inhibition): competitive; also recorded: competit
- Type of Inhibition (CYP3A4/5 [2]; direct inhibition, listed as boceprevir): competitive
- Ki at 5 min (CYP3A4/5 [2]; human, pooled human liver microsomes, pH 7.4, probe midazolam (1′-hydroxylation), direct inhibition): 7.7 µM
- IC50 at 5 min (CYP3A4/5 [2]; human, pooled human liver microsomes, pH 7.4, probe midazolam (1′-hydroxylation), direct inhibition, zero-minute pre-incubation): 11 µM
- inhibition at 5 min, 100 µM (CYP3A4/5 [2]; human, pooled human liver microsomes, pH 7.4, probe midazolam (1′-hydroxylation), direct inhibition, zero-minute pre-incubation, read-out: Max. Inhib. at 100 μM): 91%
- IC50 at 5 min (CYP3A4/5 [2]; human, pooled human liver microsomes, pH 7.4, probe midazolam (1′-hydroxylation), time-dependent inhibition, 30-minute pre-incubation): 0.97 µM
- inhibition at 5 min, 100 µM (CYP3A4/5 [2]; human, pooled human liver microsomes, pH 7.4, probe midazolam (1′-hydroxylation), time-dependent inhibition, 30-minute pre-incubation, read-out: Maximum Inhibition at 100 μM): 99%
